Measured values published in the METLIN SMRT retention time set (Domingo-Almenara et al. 2019).

Assay: gradient 5% acetonitrile 3 min, to 50% in 2 min, to 85% in 15 min, held 3 min, 100 µL/min
Settings: column: Zorbax Extend-C18 2.1 x 50 mm; eluents: water / acetonitrile, 0.1% formic acid
In short: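 Data were gathered over 3 months by HPLC coupled to a quadrupole time-of-flight mass spectrometer, operated in positive and negative ionization mode. Mixtures of ~100 pure standards ran on a Zorbax Extend-C18 column (2.1 × 50 mm, 1.8 μm) at 100 μL/min, with water and acetonitrile each containing 0.1% formic acid and dead and dwell volumes of 40 μL and 900 μL. Retention time was read from adduct peaks picked by computer and checked manually.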

SMILES | RP-LC retention time [s]
COc1ccc(N2C(=O)CN(Cc3ccccc3C)[C@H]3CS(=O)(=O)C[C@H]32)cc1 | 812
COc1cc(OC)cc(-c2nnc(Cc3nc(-c4cccc(Cl)c4)no3)o2)c1 | 1130
C=CCn1ccn(-c2ccc(F)c(Cl)c2)c(=O)c1=O | 652
Cc1noc(-c2ccccc2OC2CCNC2)n1 (stereo not drawn) | 590
CCOCCCNC(=O)N1CCN(Cc2nc3cc(C(=O)NC(C)C)ccc3n2C)CC1 | 593
CN(CC1(C)CCOCC1)C(=O)CCc1c[nH]c2ccccc12 | 772
Cc1cccc(C)c1OCC(O)Cn1c(C2CC(=O)N(Cc3ccccc3)C2)nc2ccccc21 (stereo not drawn) | 834
CCCc1cc(C2CCCN2C(=O)c2ccc(OC)c(OC)c2)no1 (stereo not drawn) | 793
CCOC(=O)COc1ccccc1C1CC(c2cccs2)=NN1C(=O)c1ccco1 (stereo not drawn) | 941
O=S(=O)(c1ccc(-c2nnc(C3CC3)o2)o1)N1CCCCC1 | 853
O=C(c1ccc(Cl)s1)N1CCCCC1c1nncn1CC1CC1 (stereo not drawn) | 800
COCCc1noc(C2CN(C(=O)c3ccsc3)C2)n1 | 654
Cc1ccnc(Nc2nc(-c3ccccc3C)cs2)c1 | 821
Cc1cc(N2CCCC2)n2nc(CN3CCN(c4ccc(Cl)cc4)CC3)nc2n1 | 654
CC(C)NC(=O)N(C1CCOCC1)C1CN(C(=O)c2cncc(Br)c2)C1 | 604
CCCNC(=O)c1cnn(-c2cc(-c3nc(C4CC4)no3)ccn2)c1C | 911
COc1ccc(N2CC(c3nc(-c4ccc5c(c4)oc(=O)n5C(C)C)no3)CC2=O)cc1 (stereo not drawn) | 915
COc1ccc2c(c1)C1(CCN(C(=O)c3cccc(C)c3)C1)C(=O)N2 (stereo not drawn) | 738
CC12C(=O)N(Cc3ccccc3)C(=O)C1C1C=CC2C1 (stereo not drawn) | 844
CCCN1C(=O)COc2ccc(-c3csc(NC(=O)COC)n3)cc21 | 823
Cc1ccc(C)c(NC(=O)Cn2c(C)cc(-c3nnc(C4CC4)o3)c2C)c1 | 851
CCCOC(=O)C1=CN(C)S(=O)(=O)N=C1C | 796
O=C1CCCN1CCCN1C(=O)[C@H]2CN(Cc3ccc(F)cc3Cl)C[C@H]2C1=O | 658

SMILES | RP-LC retention time [s]
COc1cc(OC)cc(C(=O)Nc2nc(-c3ccc4c(c3)NC(=O)C(C)O4)cs2)c1 (stereo not drawn) | 940
COc1ccc(C(=O)Nc2cnn(C)c(=O)c2N2CCOCC2)cc1Cl | 784
COC(=O)C1=CN(c2cc(Cl)c(OC)cc2OC)c2ccccc2S1(=O)=O | 903
COC(=O)c1c(C)[nH]c(C(=O)N2CCC(CC(=O)NC3CCCCCC3)CC2)c1C | 794
Cc1csc(C(=O)NCC(O)c2ccc(C(F)(F)F)cc2)c1 (stereo not drawn) | 795
CCCN1C(=O)C(CC(=O)NCCOC)Sc2ncccc21 (stereo not drawn) | 632
CC(C)(C)c1ccc(S(=O)(=O)N2CCCC2c2nc(-c3ccc(F)cc3)no2)cc1 (stereo not drawn) | 1310
Cc1c(CNCC2CCCO2)c(C(=O)O)c(C)n1Cc1cccc(Cl)c1 (stereo not drawn) | 717
O=C(C1CCN(c2ncnc3c2nc2n3CCCCC2)CC1)N1CCN(c2ncccn2)CC1 | 669
O=C(c1ccc(OCC2CCCN(C(=O)c3ccc(F)cc3)C2)cc1)N1CCOCC1 (stereo not drawn) | 769
O=C1CCN(C(=O)COc2ccc(Cl)cc2Cl)c2ccccc2N1 | 792
CC(C)NC(=O)c1ccc2c(c1)CCCN2C(=O)c1ccc(F)cc1 | 784
Cc1ncc2c(n1)C[C@@H]1CC[C@H]2N1C(=O)Nc1ccc2c(c1)OCCO2 | 630
CC(C)(C)c1cc(C(=O)NC2CCCCC2)nc2ccnn12 | 1240
CCc1nccn1Cc1noc(-c2ccc(C)c(C)c2)n1 | 672
COC(=O)c1c(NC2CCCC2)c2cccc(Cl)c2[nH]c1=O | 830
Cc1ccc2c(c1)OCC(=O)N2Cc1nc(-c2cccc(C(F)(F)F)c2)no1 | 919
Cc1nc2cc(-c3noc(-c4ccccc4C(F)(F)F)n3)ccc2o1 | 1080
CCc1noc(NC(C)=O)c1-c1ccc(OC)c(S(=O)(=O)N2CCCCC2)c1 | 758
O=C(Nc1nnc(SCc2cccnc2)s1)c1cc(C2CC2)on1 | 598
COc1ccc(-c2noc(CN3N=NC4C(=O)N(c5ccc6c(c5)CCC6)C(=O)C43)n2)c(OC)c1 (stereo not drawn) | 959
O=C(c1cnn(-c2cccc(F)c2)c1-n1cccc1)N1CCN(c2ccccn2)CC1 | 664

The remaining lines, values ahead:

RP-LC retention time [s] | SMILES
817 | O=C(Cn1ccn2nc(-c3ccccc3)cc2c1=O)NCc1ccccc1Cl
616 | CCc1nc2cccnc2n1CCN1CCN(C(=O)Nc2cccc(Br)c2)CC1
974 | CCCn1c(=O)sc2cc(S(=O)(=O)N3CCC(C(=O)Nc4ccc(F)cc4C)CC3)ccc21
718 | O=C(CN1CCN(C(=O)Nc2ccc(Br)cc2)CC1=O)NCc1ccco1
639 | Cn1ncc2c3ccccc3n(CC(=O)N3CCN(Cc4ccccc4)CC3)c2c1=O
873 | O=C(CCCn1nnc2cc(S(=O)(=O)N3CCCC3)ccc21)N1CCCc2ccccc21
946 | CCc1cccc(NS(=O)(=O)c2cn(C(C)C)c3ncccc23)c1
926 | CCOc1cc(=O)n2c(c1C(=O)OCc1cccc(C)c1)CCCC2
644 | CCn1cc(CCN2CCC(C(=O)Nc3ccc(C)cc3)CC2)c2cccnc21
811 | Cc1ccccc1CC(=O)N1CCCC(COc2ccc(C(=O)N3CCOCC3)cc2)C1 (stereo not drawn)
925 | O=C(Nc1ccc(N2CCOCC2)cc1)C1CCCN(c2ncc(-c3ccccc3)cn2)C1 (stereo not drawn)
794 | Cc1ccc(Nc2c(-c3cccc([N+](=O)[O-])c3)nc3cc(C)ccn23)cc1
726 | Cc1ccc(NC(=O)N2CCC(c3nc(C(=O)N(C)C)c(C)o3)CC2)cc1C
634 | Cc1ccc(C)n1-c1nnc(N2CCC(C(=O)N3CCN(c4ccccn4)CC3)CC2)s1
793 | CN1c2ccc(Cl)cc2C(=O)NC12CCN(C(=O)c1ccccc1)CC2
1030 | CCN1C(=O)COc2ccc(-c3nc(NC(=O)c4ccccc4)sc3C)cc21
753 | COc1cc(CN2C[C@@H]3C(=O)N(CCc4ccccc4)C(=O)[C@@H]3C2)cc(OC)c1
593 | CC1CCn2c(nc3cc(C(=O)N4CCN(c5ncccn5)CC4)ccc32)C1 (stereo not drawn)
1290 | Cc1ccc(F)cc1NC(=O)c1c(O)c2cccnc2n(-c2ccc(F)cc2)c1=O
591 | COc1cccc2c1cc1c(=O)n(CC(=O)N3CCN(c4ccccn4)CC3)nc(C)n12
799 | Cc1c(F)cccc1NC(=O)N1C[C@@H](F)C[C@H]1C(=O)N1CCc2ccccc2C1
696 | COc1cccc(N2CCN(C(=O)C3CCCN(c4nc5ncccc5n5cccc45)C3)CC2)c1 (stereo not drawn)

RP-LC retention time [s] | SMILES
605 | CCCN1C(=O)c2cc(C(=O)NCc3ccccc3)nn2CC1(C)C(=O)NC1CCCC1 (stereo not drawn)
800 | COC(=O)c1c(C)[nH]c(C(=O)N2CCCC(C(=O)NCCCc3ccccc3)C2)c1C (stereo not drawn)
583 | O=C(CN1C(=O)c2ccccc2Sc2ncccc21)N1CCC(N2CCCCC2)CC1
575 | CCC(C)NC(=O)C1CCN(c2cnc(N3CCN(CC)CC3)nc2)CC1 (stereo not drawn)
1190 | CC(NC(=O)c1c(O)c2cccnc2n(-c2ccccc2)c1=O)c1ccccc1 (stereo not drawn)
598 | CCn1nc(CNC(=O)CSc2ccncc2)c2ccccc21
869 | COc1ccccc1CC(=O)Nc1ccc(-c2nc(Cn3cccn3)c(C)o2)cc1
645 | COc1ccc(-c2cc(C(=O)O)c3ccccc3n2)cc1
924 | COC(=O)COC(=O)c1cn(-c2cccc(OC)c2)c(=O)c2ccccc12
561 | CC(C)C(=O)Nc1ccc2nc(N3CCN(CC(=O)N4CCCC4)CC3)cc(C(=O)O)c2c1
591 | O=C(NCc1ccc(N2CCOCC2)cc1)c1cn2ccccc2n1
702 | Cc1nn(C(C)C(=O)NCCCN2CCCCCC2)c(=O)c2c1sc1ccccc12 (stereo not drawn)
894 | O=C(Cn1c(=O)c(S(=O)(=O)c2ccccc2)cc2ccccc21)NC1CCCCC1
770 | O=C(Cn1ccn2nc(-c3ccc(F)cc3)c(CO)c2c1=O)NC1CCCC1
1060 | CCc1nc(-c2csc(S(=O)(=O)N3CCCC(C(=O)NCc4ccc(C)cc4)C3)c2)no1 (stereo not drawn)
771 | COCCN1C(=O)Cc2ccccc2C1C(=O)NCc1ccc(SC)cc1 (stereo not drawn)
807 | COC(=O)c1scc(-c2ccc(C)cc2)c1S(=O)(=O)N1CCN(c2ccccn2)CC1
776 | O=C1C(c2cccnc2)N(CCCc2ccccc2)C(=O)CN1c1ccccc1 (stereo not drawn)
755 | Cc1cccc(-c2ncccc2CNS(=O)(=O)c2ccc(F)c(F)c2)c1
902 | CCn1cc(-c2nc(CC(=O)Nc3ccc(F)c(C)c3)cs2)c2cccnc21
673 | COc1ccc(-c2nc3cnccn3c2NCCC(=O)Nc2ccc3c(c2)OCO3)cc1
